The source of these data is article PMC4398456, “Evidence for a Novel Mechanism of Antimicrobial Action of a Cyclic R-,W-Rich Hexapeptide” (PLoS ONE, 2015).

Residues, ends and D or L forms follow the SMILES beside them.

The assay is described as follows: ITC binding to LUVs. On the set-up: species or system E. coli. As to conditions: 25°C. As for the experimental part:
The lipid concentration of E. coli extract preparations was determined from dried lipid films by gravimetric analysis. Liposomes were prepared after resuspension in phosphate buffer and sonication on ice for 25 min under nitrogen stream using a Labsonic L ultrasonicator (B. Braun Biotech, Germany) followed by centrifugation for 5 min at 11000 × g (Eppendorf MiniSpin, Germany) to remove potential titanium debris. The diameter of LUVs from E. coli extract was 90 nm. According to manufacturer's data, E. coli polar lipid extract is a three component mixture containing 71.4% PE-, 23.4% PG-lipids and 5.2% CL (mol%).
High-sensitivity isothermal titration calorimetry (ITC) experiments to characterise peptide interaction with model membranes were performed at 25°C on a VP-ITC instrument (MicroCall, Malvern Instruments, UK). Binding data were generated as described before. Prior to use, solutions were gently degassed under vacuum. 10 μl aliquots of 5 to 10 mM lipid vesicles were titrated into a 40 μM peptide solution inside the calorimeter cell (1.4 ml) while the reaction mixture was continuously stirred at 307 rpm. Time intervals between injections were adjusted to 10 min which was sufficient for the heat signal to return to baseline level. Automated baseline adjustment and peak integration were accomplished with the public-domain software NITPIC [32].
Binding parameters, such as hydrophobic partition coefficient (K 0) and enthalpy of binding (ΔH°), were derived by applying a surface partition equilibrium under the specific condition that peptide adsorption is linearly related to the peptide concentration immediately above the membrane surface. This concentration in close proximity to the membrane is determined by electrostatic interactions and depends on the bulk concentration of peptide, peptide charge and membrane surface potential. Negatively charged lipid layers attract cationic peptides. Consequently, the membrane surface concentration is enhanced compared to that in the bulk solution. After binding of cationic peptides to an electrically neutral membrane it becomes positively charged which results in a repulsion of further peptides from the membrane surface. Using the Gouy—Chapman theory which accounts for electrostatic effects, it is possible to calculate the peptide surface concentration and to determine the partition coefficient K 0 [33]. Nonlinear least-squares data fitting was performed with Excel 2010 (Microsoft) using the Solver add-in (Frontline Systems). The Gibbs free energy was calculated according to ΔG° = -RT ln(55.5 M × K 0), where 55.5 M is the molar concentration of water in the aqueous phase. Finally, the entropic contribution to membrane partitioning,-TΔS°, was derived from the Gibbs-Helmholtz equation, ΔG° = ΔH°-TΔS°.

With `N=C(N)NCCC[C@@H]1NC(=O)[C@H](CCCNC(=N)N)NC(=O)[C@H](Cc2c[nH]c3ccccc23)NC(=O)[C@H](Cc2ccccc2)NC(=O)[C@H](Cc2c[nH]c3ccccc23)NC(=O)[C@H](CCCNC(=N)N)NC1=O` [cWFW] (cyclo(FWRRRW)), the “ΔH°” value (10 mM LUVs into 40 μM peptide, γ = 0.6) is -3.99 kcal/mol. In addition, the “K 0 (hydrophobic partition coefficient)” value (10 mM LUVs titrated into 40 μM peptide, phosphate buffer pH 7.4, surface partition model, γ = 0.6) amounted to 8.8e+06 M⁻¹. Further, the “ΔG°” value (calculated as -RT ln(55.5 M × K 0), LUVs of E. coli extract) was -11.9 kcal/mol. For the same compound, the “-TΔS°” value (from Gibbs-Helmholtz equation, LUVs of E. coli extract) was -7.86 kcal/mol.
